Our source for the EC50 values is patent US20240173307A1, “MODULATORS OF THE INTEGRATED STRESS PATHWAY” (Calico Life Sciences LLC, priority 2017, published 2024).

In the assay the test system is HEK293T cells carrying the ATF4 luciferase reporter. Description: ATF4-Luc assay (in vitro model of vanishing white matter disease). The format is cell-based. Conditions: Homo sapiens, HEK-293T, 1 μg/mL tunicamycin, 7 hours. As for the experimental part:
In order to test exemplary compounds of the invention in a cellular context, a stable VWMD cell line was first constructed. The ATF4 reporter was prepared by fusing the human full-length ATF4 5′-UTR (NCBI Accession No. BCO22088.2) in front of the firefly luciferase (FLuc) coding sequence lacking the initiator methionine as described in Sidrauski et al (eLife 2013). The construct was used to produce recombinant retroviruses using standard methods and the resulting viral supernatant was used to transduce HEK293T cells, which were then subsequently selected with puromycin to generate a stable cell line.
HEK293T cells carrying the ATF4 luciferase reporter were plated on polylysine coated 384-well plates (Greiner Bio-one) at 30,000 cells per well. Cells were treated the next day with 1 μg/mL tunicamycin and 200 nM of a compound of Formula (I) for 7 hours. Luminescence was measured using One Glo (Promega) as specified by the manufacturer. Cells were maintained in DMEM with L-glutamine supplemented with 10% heat-inactivated FBS (Gibco) and Antibiotic-Antimycotic solution (Gibco).
Table 2 below summarizes the EC50 data obtained using the ATF4-Luc assay for exemplary compounds of the invention.

Broadly, the EC50 is the concentration giving half of the maximal effect. As for `O=C(COc1ccc(Cl)c(Cl)c1)NC12CCC(C(=O)NCc3ccc(C(F)(F)F)cc3)(CC1)[C@H](O)C2` (single isomer, unassigned) [Compound 263], the EC50 was below 250 nM.

As to `O=C(COc1ccc(Cl)c(Cl)c1)NC12CCC(C(=O)NCc3ccc(C(F)(F)F)cc3)(CC1)[C@@H](O)C2` (single isomer, unassigned) [Compound 264], the EC50 is below 250 nM. Next, `O=C(COc1ccc(Cl)c(F)c1)NC12CCC(C(=O)NCc3ccc(C(F)(F)F)cc3)(CC1)[C@@H](O)C2` (single isomer, unassigned) [Compound 266]: below 250 nM; `O=C(COc1ccc(Cl)c(F)c1)NC12CCC(C(=O)NCc3ccc(C(F)(F)F)cc3)(CC1)[C@H](O)C2` (single isomer, unassigned) [Compound 267]: below 250 nM; `O=C(COc1ccc(Cl)c(F)c1)NC12CCC(C(=O)NCc3ccc(C(F)(F)F)cc3)(CC1)C[C@H]2O` (single isomer, unassigned) [Compound 269]: below 250 nM. Under `O=C(COc1ccc(Cl)c(F)c1)NC12CCC(C(=O)NCc3ccc(C(F)(F)F)cc3)(CC1)C[C@@H]2O` (single isomer, unassigned) [Compound 270] stands below 250 nM; under `O=C(COc1ccc(Cl)c(F)c1)NC12CCC(C(=O)NCc3ccc(C(F)(F)F)cn3)(CC1)C[C@H]2O` (single isomer, unassigned) [Compound 271], below 250 nM.

Take `O=C(COc1ccc(Cl)c(F)c1)NC12CCC(C(=O)NCc3ccc(C(F)(F)F)cn3)(CC1)C[C@@H]2O` (single isomer, unassigned) [Compound 272]: the EC50 is below 250 nM. Turning to `O=C(COc1ccc(Cl)c(F)c1)NC12CCC(C(=O)NCc3ccc(C(F)(F)F)cc3)(CC1)C(O)C2` (stereo not drawn) [Compound 110, 4-[2-(4-chloro-3-fluorophenoxy)acetamido]-2-hydroxy-N-{[4-(trifluoromethyl)phenyl]methyl}bicyclo[2.2.2]octane-1-carboxamide], the EC50 is below 250 nM. Next, `O=C(COc1ccc(Cl)c(F)c1)NC12CC(C(=O)NCc3cnccn3)(C1)C2` [Compound 164, 3-[2-(4-chloro-3-fluorophenoxy)acetamido]-N-[(pyrazin-2-yl)methyl]bicyclo[1.1.1]pentane-1-carboxamide]: above 2000 nM; `O=C(COc1ccc(Cl)c(F)c1)NC12CC(C(=O)NCCc3c[nH]c4ccccc34)(C1)C2` [Compound 194, 3-[2-(4-chloro-3-fluorophenoxy)acetamido]-N-[2-(1H-indol-3-yl)ethyl]bicyclo[1.1.1]pentane-1-carboxamide]: below 250 nM; `O=C(COc1ccc(Cl)c(F)c1)NC12CC(C(=O)NCCCc3cccnc3)(C1)C2` [Compound 253, 3-[2-(4-chloro-3-fluorophenoxy)acetamido]-N-[3-(pyridin-3-yl)propyl]bicyclo[1.1.1]pentane-1-carboxamide]: 1000 to 2000 nM. `O=C(COc1ccc(Cl)c(F)c1)NC12CC(C(=O)NCCCc3ccccn3)(C1)C2` [Compound 254, 3-[2-(4-chloro-3-fluorophenoxy)acetamido]-N-[3-(pyridin-2-yl)propyl]bicyclo[1.1.1]pentane-1-carboxamide]: the EC50 was 1000 to 2000 nM. Under `O=C(COc1ccc(Cl)c(Cl)c1)NC12CCC(C(=O)NCc3ccc(C(F)(F)F)cc3)(CC1)C(O)C2` (stereo not drawn) [Compound 255, 4-[2-(3,4-dichlorophenoxy)acetamido]-2-hydroxy-N-{[4-(trifluoromethyl)phenyl]methyl}bicyclo[2.2.2]octane-1-carboxamide] stands below 250 nM.

With `O=C(COc1ccc(Cl)c(F)c1)NC12CCC(C(=O)NCc3ccc(OC(F)F)cn3)(C1)C2` [Compound 256, 4-[2-(4-chloro-3-fluorophenoxy)acetamido]-N-{[5-(difluoromethoxy)pyridin-2-yl]methyl}bicyclo[2.1.1]hexane-1-carboxamide], the EC50 lay within 1000 to 2000 nM.
